Results on 2 compounds are retold here after ChEMBL document CHEMBL4725437, “P450s under Restriction (PURE) Screen Using HepaRG and Primary Human Hepatocytes for Discovery of Novel HBV Antivirals” (ACS Med Chem Lett, 2020).

Calls of active or inactive are those of the source. The rule behind the calls is not given here.

Series [1] has as its target T1, CYP2C9 (Homo sapiens, UniProt P11712). The series is described as follows: Inhibition of CYP2C9 in HBV-infected human HepaRG cells at 10 mM using luciferin-H as substrate treated for 1 hr on day 5 post-infection followed by removal of media and supplemented with fresh media and further incubated for 3 days then followed by treatment for 1 hr on day 8 post-infection followed by removal of media and supplemented with fresh media and further incubated for 3 days and measured on day 11 post-infection by P450-Glo chemiluminescent assay relative to control. The format is ADME, tissue-based. To be noted: probe luciferin-H.

In series [2] the target is T1, CYP2C9. The experiment in a line: Inhibition of CYP2C9 in HBV-infected human HepaRG cells at 10 mM using luciferin-H as substrate treated for 1 hr on day 5 post-infection followed by removal of media and supplemented with fresh media and further incubated for 3 days then followed by treatment for 1 hr on day 8 post-infection followed by removal of media and supplemented with fresh media and further incubated for 3 days in presence of 50 uM SKF-525A and measured on day 11 post-infection by P450-Glo chemiluminescent assay relative to control. It is filed as ADME, tissue-based. Conditions: probe luciferin-H, with SKF-525A 50 uM.

Series [3] has as its system Hepatitis B virus. The series is described as follows: Antiviral activity against Hepatitis B virus infected in human primary hepatocytes assessed as reduction in HbsAg secretion level at 10 mM treated for 1 hr on day 5 post-infection followed by removal of media and supplemented with fresh media and further incubated for 3 days then followed by treatment for 1 hr on day 8 post-infection followed by removal of media and supplemented with fresh media and further incubated for 3 days in presence of 50 uM SKF-525A and measured on day 11 post-infection by chemiluminescence immunostaining assay relative to control. The format is functional, organism-based. To be noted: Primary hepatocyte.

The next series concerns the target Cytochrome P450 2C9 (Homo sapiens, UniProt P11712). The series is described as follows: Inhibition of CYP2C9 in HBV-infected human primary hepatocytes cells at 0.2 to 20 mM using luciferin-H as substrate treated for 1 hr on day 5 post-infection followed by removal of media and supplemented with fresh media and further incubated for 3 days then followed by treatment for 1 hr on day 8 post-infection followed by removal of media and supplemented with fresh media and further incubated for 3 days and measured on day 11 post-infection by P450-Glo chemiluminescent assay. It is filed as ADME, tissue-based, Primary hepatocyte. To be noted: 20000 µM, dose 0.2-20 mM.

For series [4], the target named is T2, CYP1A2 (Homo sapiens, UniProt P05177).
T2 sequence (P05177 whole entry): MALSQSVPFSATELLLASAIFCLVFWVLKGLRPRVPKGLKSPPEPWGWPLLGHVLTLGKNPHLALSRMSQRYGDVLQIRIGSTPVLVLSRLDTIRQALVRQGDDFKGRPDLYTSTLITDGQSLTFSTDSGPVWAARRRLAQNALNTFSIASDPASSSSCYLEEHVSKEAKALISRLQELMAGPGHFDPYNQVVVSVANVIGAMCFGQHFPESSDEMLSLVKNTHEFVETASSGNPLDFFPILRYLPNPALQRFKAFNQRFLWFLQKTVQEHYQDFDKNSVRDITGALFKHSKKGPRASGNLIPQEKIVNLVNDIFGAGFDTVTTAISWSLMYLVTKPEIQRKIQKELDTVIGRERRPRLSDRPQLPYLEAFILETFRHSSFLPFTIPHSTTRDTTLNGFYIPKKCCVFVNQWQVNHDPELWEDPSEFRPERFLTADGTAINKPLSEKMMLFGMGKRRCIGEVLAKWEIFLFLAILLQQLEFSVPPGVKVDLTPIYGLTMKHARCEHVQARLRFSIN
The series is described as follows: Inhibition of CYP1A2 in HBV-infected human HepaRG cells at 10 mM using luciferin-1A2 as substrate treated for 1 hr on day 5 post-infection followed by removal of media and supplemented with fresh media and further incubated for 3 days by P450-Glo chemiluminescent assay relative to control. The format is ADME, tissue-based. Conditions: probe luciferin-1A2.

In series [5] the target is T2, CYP1A2. The series is described as follows: Inhibition of CYP1A2 in HBV-infected human HepaRG cells at 10 mM using luciferin-1A2 as substrate treated for 1 hr on day 5 post-infection followed by removal of media and supplemented with fresh media and further incubated for 3 days then followed by treatment for 1 hr on day 8 post-infection followed by removal of media and supplemented with fresh media and further incubated for 3 days in presence of 50 uM SKF-525A and measured on day 11 post-infection by P450-Glo chemiluminescent assay relative to control. It is filed as ADME, tissue-based. Conditions: probe luciferin-1A2, with SKF-525A 50 uM.

Series [6] has as its system Hepatitis B virus. The series is described as follows: Antiviral activity against Hepatitis B virus infected in human primary hepatocytes assessed as reduction in HbsAg secretion level at 10 mM treated for 1 hr on day 5 post-infection followed by removal of media and supplemented with fresh media and further incubated for 3 days then followed by treatment for 1 hr on day 8 post-infection followed by removal of media and supplemented with fresh media and further incubated for 3 days in presence of 25 uM SKF-525A and measured on day 11 post-infection by chemiluminescence immunostaining assay. The format is functional, Primary hepatocyte. Details: scale not given: the % may be the effect or the level left.

Series [7] concerns the target T3, CYP3A4 (Homo sapiens, UniProt P08684). The experiment in a line: Inhibition of CYP3A4 in HBV-infected human HepaRG cells at 10 mM using luciferin-IPA as substrate treated for 1 hr on day 5 post-infection followed by removal of media and supplemented with fresh media and further incubated for 3 days in presence of 50 uM SKF-525A by P450-Glo chemiluminescent assay relative to control. To be noted: probe luciferin-IPA, with SKF-525A 50 uM. The format is ADME, tissue-based.

The test system of series [8] is Hepatitis B virus. The experiment in a line: Antiviral activity against Hepatitis B virus infected in human primary hepatocytes assessed as reduction in HbsAg secretion level at 25 uM treated for 1 hr on day 5 post-infection followed by removal of media and supplemented with fresh media and further incubated for 3 days then followed by treatment for 1 hr on day 8 post-infection followed by removal of media and supplemented with fresh media and further incubated for 3 days in presence of 10 mM ABT and measured on day 11 post-infection by chemiluminescence immunostaining assay. Details: scale not given: the % may be the effect or the level left. It is filed as functional, Primary hepatocyte.

Series [9] concerns the target T2, CYP1A2. The series is described as follows: Inhibition of CYP1A2 in HBV-infected human HepaRG cells at 50 uM using luciferin-1A2 as substrate treated for 1 hr on day 5 post-infection followed by removal of media and supplemented with fresh media and further incubated for 3 days then followed by treatment for 1 hr on day 8 post-infection followed by removal of media and supplemented with fresh media and further incubated for 3 days and measured on day 11 post-infection by P450-Glo chemiluminescent assay relative to control. The format is ADME, tissue-based. To be noted: probe luciferin-1A2.

Series [10] has as its target T2, CYP1A2. The experiment in a line: Inhibition of CYP1A2 in HBV-infected human HepaRG cells at 50 uM using luciferin-1A2 as substrate treated for 1 hr on day 5 post-infection followed by removal of media and supplemented with fresh media and further incubated for 3 days then followed by treatment for 1 hr on day 8 post-infection followed by removal of media and supplemented with fresh media and further incubated for 3 days in presence of 10 mM ABT and measured on day 11 post-infection by P450-Glo chemiluminescent assay relative to control. The format is ADME, tissue-based. Conditions: probe luciferin-1A2, with ABT 10 mM.

The target in series [11] is T3, CYP3A4. The experiment in a line: Inhibition of CYP3A4 in HBV-infected human HepaRG cells at 50 uM using luciferin-IPA as substrate treated for 1 hr on day 5 post-infection followed by removal of media and supplemented with fresh media and further incubated for 3 days by P450-Glo chemiluminescent assay relative to control. The format is ADME, tissue-based. Conditions: probe luciferin-IPA.

T3 sequence (P08684 whole entry): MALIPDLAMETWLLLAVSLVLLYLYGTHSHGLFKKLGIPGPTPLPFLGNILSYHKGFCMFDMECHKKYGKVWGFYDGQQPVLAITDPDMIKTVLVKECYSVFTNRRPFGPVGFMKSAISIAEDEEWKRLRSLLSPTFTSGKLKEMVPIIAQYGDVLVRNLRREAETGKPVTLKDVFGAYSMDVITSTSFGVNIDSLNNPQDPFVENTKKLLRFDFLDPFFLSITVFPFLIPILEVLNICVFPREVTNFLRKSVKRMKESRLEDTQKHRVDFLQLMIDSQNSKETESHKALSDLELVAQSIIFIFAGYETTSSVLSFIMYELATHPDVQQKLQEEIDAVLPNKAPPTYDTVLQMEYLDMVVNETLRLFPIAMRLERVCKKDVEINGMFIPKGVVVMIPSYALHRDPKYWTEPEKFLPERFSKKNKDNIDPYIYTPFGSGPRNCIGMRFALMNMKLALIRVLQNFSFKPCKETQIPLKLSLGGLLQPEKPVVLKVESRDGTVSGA
T1 sequence (P11712 whole entry): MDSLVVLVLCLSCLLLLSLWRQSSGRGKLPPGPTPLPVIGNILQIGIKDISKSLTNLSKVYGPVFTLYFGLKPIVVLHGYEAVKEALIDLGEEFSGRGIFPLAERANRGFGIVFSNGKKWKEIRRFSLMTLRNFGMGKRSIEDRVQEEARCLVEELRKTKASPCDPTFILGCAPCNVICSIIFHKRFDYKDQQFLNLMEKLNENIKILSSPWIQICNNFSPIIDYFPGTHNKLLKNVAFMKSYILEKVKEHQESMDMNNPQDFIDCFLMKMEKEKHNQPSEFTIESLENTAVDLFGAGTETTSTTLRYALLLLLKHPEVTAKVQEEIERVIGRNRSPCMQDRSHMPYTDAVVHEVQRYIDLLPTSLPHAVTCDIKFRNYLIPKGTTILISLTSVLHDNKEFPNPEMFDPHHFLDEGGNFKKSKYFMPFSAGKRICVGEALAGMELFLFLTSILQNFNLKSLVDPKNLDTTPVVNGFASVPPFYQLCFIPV
Sequence of Cytochrome P450 2C9 (P11712 whole entry): as above

As to `Nn1nnc2ccccc21`, the inhibition at 1 h, 10000 µM was 67.5% at CYP2C9 [1]; 82.1% at CYP2C9 [2]; 37.1% on CYP1A2 [4]; 88.8% on CYP1A2 [5]; 83.3% at CYP3A4 [7]. Further, the result in the series on Hepatitis B virus [3] was inactive. Besides, on Cytochrome P450 2C9, the “inhibition (INH)” value was “Active”. The Activity with Hepatitis B virus [6] was 20%.
`CCCC(C(=O)OCCN(CC)CC)(c1ccccc1)c1ccccc1` [PROADIFEN]: the Activity in the series on Hepatitis B virus [8] is 20%. The inhibition at 1 h, 50 µM on CYP1A2 [9] was 30.8%; on CYP1A2 [10], 88.8%; against CYP3A4 [11], 80.3%.

Usually inhibition stands for how much of the control response was suppressed.
